This assay concerns T cells generated with E. coli expressed polytope. In words: ELISPOT with in vitro translated epitope peptides on the polytope-generated T cell line (FIG. 10). The assay is classed as cell-based, human. The method, then:
An exemplary synthetic DNA template for creating neoepitope peptides in vitro is depicted below, and the corresponding sequences are shown in SEQ ID NO:18, SEQ ID NO:19, SEQ ID NO:20, and SEQ ID NO:21 respectively.
One template strand oligo per epitope plus sense strand universal promoter oligo was used. […] Rather the reaction required simply adding annealed oligos to expression mix, and the mixture was allowed to react for 2 hours.

FMRPHERNGFTVLCPKNMIIKPGKI [E6]: the “Recognition of epitope by T cells in the T cell line” value is recorded as “recognized by T cells”.
In the case of “WQAGILARNLVPMVATVQGQNLKYQ (IVT&T peptide9)” it was “recognized by T cells”.
